One block for each compound: values may come before it.
Tested on: 521955-158-R2-J5-PDC complex spheroid growth, % test/control
Experiment: Anticancer human tumor 521955-158-R2-J5-PDC patient-derived pancreatic carcinoma cell line growth inhibition [Asc]
Settings: for IC50: curve of first compound; for viability, T/C: stronger effect = lower value
In short: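 Tumor cells were grown as complex spheroids with human endothelial cells (HUVEC) and human mesenchymal stem cells as stroma. Agents were tested alone and in combination, in half-log steps down from the clinical Cmax, or from 10 microM where Cmax was unknown.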

[1] = second compound 0.01 µM, first compound 0.00316 µM
[2] = second compound 0.01 µM, first compound 0.01 µM
[3] = second compound 0.01 µM, first compound 0.0316 µM
[4] = second compound 0.01 µM, first compound 0.1 µM
[5] = second compound 0.0316 µM, first compound 0.00316 µM
[6] = second compound 0.0316 µM, first compound 0.01 µM
[7] = second compound 0.0316 µM, first compound 0.0316 µM
[8] = second compound 0.0316 µM, first compound 0.1 µM
[9] = second compound 0.1 µM, first compound 0.00316 µM
[10] = second compound 0.1 µM, first compound 0.01 µM
[11] = second compound 0.1 µM, first compound 0.0316 µM
[12] = second compound 0.1 µM, first compound 0.1 µM
[13] = second compound 0.316 µM, first compound 0.00316 µM
[14] = second compound 0.316 µM, first compound 0.01 µM
[15] = second compound 0.316 µM, first compound 0.0316 µM
[16] = second compound 0.316 µM, first compound 0.1 µM
[17] = second compound 1 µM, first compound 0.00316 µM
[18] = second compound 1 µM, first compound 0.01 µM
[19] = second compound 1 µM, first compound 0.0316 µM
[20] = second compound 1 µM, first compound 0.1 µM
[21] = second compound 0.01 µM, first compound 0.316 µM
[22] = second compound 0.01 µM, first compound 1 µM
[23] = second compound 0.0316 µM, first compound 0.316 µM
[24] = second compound 0.0316 µM, first compound 1 µM
[25] = second compound 0.1 µM, first compound 0.316 µM
[26] = second compound 0.1 µM, first compound 1 µM
[27] = second compound 0.316 µM, first compound 0.316 µM
[28] = second compound 0.316 µM, first compound 1 µM
[29] = second compound 1 µM, first compound 0.316 µM
[30] = second compound 1 µM, first compound 1 µM
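Further: spheroids exposed to agents for 7 days before readout.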
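Wherever viability, T/C is given: 100% = DMSO vehicle control viability.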

IC50 (second compound 0.03 µM): 1.5 µM
IC50 (second compound 0.0949 µM): > 3 µM
IC50 (second compound 0.3 µM): 1.31 µM
IC50 (second compound 0.949 µM): > 3 µM
IC50 (second compound 3 µM): > 3 µM
SMILES: Cc1nc(N2CCC3(CC2)COC(C)C3N)c(CO)nc1Sc1ccnc(N)c1Cl (stereo not given) + CCN1C(C(=O)NC23CCC(C(=O)O)(CC2)CC3)C(c2cccc(Cl)c2F)C2(C(=O)Nc3cc(Cl)ccc32)C12CCCCC2
viability, T/C (second compound 0.03 µM, first compound 0.00949 µM): 75.7%
viability, T/C (second compound 0.03 µM, first compound 0.03 µM): 75.9%
viability, T/C (second compound 0.03 µM, first compound 0.0949 µM): 65.8%
viability, T/C (second compound 0.03 µM, first compound 0.3 µM): 60.8%
viability, T/C (second compound 0.03 µM, first compound 0.949 µM): 47.5%
viability, T/C (second compound 0.03 µM, first compound 3 µM): 50.3%
viability, T/C (second compound 0.0949 µM, first compound 0.00949 µM): 88.3%
viability, T/C (second compound 0.0949 µM, first compound 0.03 µM): 95.6%
viability, T/C (second compound 0.0949 µM, first compound 0.0949 µM): 70.2%
viability, T/C (second compound 0.0949 µM, first compound 0.3 µM): 80.2%
viability, T/C (second compound 0.0949 µM, first compound 0.949 µM): 70.8%
viability, T/C (second compound 0.0949 µM, first compound 3 µM): 57.6%
viability, T/C (second compound 0.3 µM, first compound 0.00949 µM): 88.5%
viability, T/C (second compound 0.3 µM, first compound 0.03 µM): 87.1%
viability, T/C (second compound 0.3 µM, first compound 0.0949 µM): 71.2%
viability, T/C (second compound 0.3 µM, first compound 0.3 µM): 59.2%
viability, T/C (second compound 0.3 µM, first compound 0.949 µM): 62%
viability, T/C (second compound 0.3 µM, first compound 3 µM): 37.8%
viability, T/C (second compound 0.949 µM, first compound 0.00949 µM): 97.7%
viability, T/C (second compound 0.949 µM, first compound 0.03 µM): 87.8%
viability, T/C (second compound 0.949 µM, first compound 0.0949 µM): 85%
viability, T/C (second compound 0.949 µM, first compound 0.3 µM): 67.2%
viability, T/C (second compound 0.949 µM, first compound 0.949 µM): 68.1%
viability, T/C (second compound 0.949 µM, first compound 3 µM): 69.5%
viability, T/C (second compound 3 µM, first compound 0.00949 µM): 139%
viability, T/C (second compound 3 µM, first compound 0.03 µM): 122%
viability, T/C (second compound 3 µM, first compound 0.0949 µM): 101%
viability, T/C (second compound 3 µM, first compound 0.3 µM): 96.6%
viability, T/C (second compound 3 µM, first compound 0.949 µM): 90.6%
viability, T/C (second compound 3 µM, first compound 3 µM): 99%

IC50 (second compound 0.01 µM): > 0.1 µM
IC50 (second compound 0.0316 µM): > 0.1 µM
IC50 (second compound 0.1 µM): > 0.1 µM
IC50 (second compound 0.316 µM): > 0.1 µM
IC50 (second compound 1 µM): > 0.1 µM
SMILES: Cn1ncnc1[C@H]1c2n[nH]c(=O)c3cc(F)cc(c23)N[C@@H]1c1ccc(F)cc1 + CNC(C)C(=O)NC1CN(S(=O)(=O)c2cccc(S(=O)(=O)N3CCC4CCC(C(=O)NC(c5ccccc5)c5ccccc5)N4C(=O)C(NC(=O)C(C)NC)C3)c2)CCC2CCC(C(=O)NC(c3ccccc3)c3ccccc3)N2C1=O
viability, T/C (second compound 0.01 µM, first compound 0.000316 µM): 103%
viability, T/C (second compound 0.01 µM, first compound 0.001 µM): 103%
viability, T/C [1]: 85.7%
viability, T/C [2]: 65.6%
viability, T/C [3]: 65.4%
viability, T/C [4]: 71.9%
viability, T/C (second compound 0.0316 µM, first compound 0.000316 µM): 103%
viability, T/C (second compound 0.0316 µM, first compound 0.001 µM): 102%
viability, T/C [5]: 89.6%
viability, T/C [6]: 78%
viability, T/C [7]: 62.3%
viability, T/C [8]: 64.1%
viability, T/C (second compound 0.1 µM, first compound 0.000316 µM): 80.8%
viability, T/C (second compound 0.1 µM, first compound 0.001 µM): 108%
viability, T/C [9]: 91%
viability, T/C [10]: 76.5%
viability, T/C [11]: 86.9%
viability, T/C [12]: 56.2%
viability, T/C (second compound 0.316 µM, first compound 0.000316 µM): 100%
viability, T/C (second compound 0.316 µM, first compound 0.001 µM): 83%
viability, T/C [13]: 96.4%
viability, T/C [14]: 79.2%
viability, T/C [15]: 73.4%
viability, T/C [16]: 63.2%
viability, T/C (second compound 1 µM, first compound 0.000316 µM): 108%
viability, T/C (second compound 1 µM, first compound 0.001 µM): 75.1%
viability, T/C [17]: 102%
viability, T/C [18]: 89.5%
viability, T/C [19]: 68.3%
viability, T/C [20]: 86.6%

IC50 (second compound 0.01 µM): > 10 µM
IC50 (second compound 0.0316 µM): > 10 µM
IC50 (second compound 0.1 µM): > 10 µM
IC50 (second compound 0.316 µM): > 10 µM
IC50 (second compound 1 µM): > 10 µM
SMILES: O=C(c1cc(Cc2n[nH]c(=O)c3ccccc23)ccc1F)N1CCN(C(=O)C2CC2)CC1 + CNC(C)C(=O)NC1CN(S(=O)(=O)c2cccc(S(=O)(=O)N3CCC4CCC(C(=O)NC(c5ccccc5)c5ccccc5)N4C(=O)C(NC(=O)C(C)NC)C3)c2)CCC2CCC(C(=O)NC(c3ccccc3)c3ccccc3)N2C1=O
viability, T/C [3]: 74.8%
viability, T/C [4]: 92.3%
viability, T/C [21]: 60.6%
viability, T/C [22]: 66.1%
viability, T/C (second compound 0.01 µM, first compound 3.16 µM): 73.4%
viability, T/C (second compound 0.01 µM, first compound 10 µM): 64.3%
viability, T/C [7]: 66.8%
viability, T/C [8]: 77.8%
viability, T/C [23]: 98.6%
viability, T/C [24]: 75.8%
viability, T/C (second compound 0.0316 µM, first compound 3.16 µM): 64.9%
viability, T/C (second compound 0.0316 µM, first compound 10 µM): 64.6%
viability, T/C [11]: 71.8%
viability, T/C [12]: 87.9%
viability, T/C [25]: 76.4%
viability, T/C [26]: 61.1%
viability, T/C (second compound 0.1 µM, first compound 3.16 µM): 74.6%
viability, T/C (second compound 0.1 µM, first compound 10 µM): 73.2%
viability, T/C [15]: 89%
viability, T/C [16]: 95.7%
viability, T/C [27]: 82.1%
viability, T/C [28]: 71.2%
viability, T/C (second compound 0.316 µM, first compound 3.16 µM): 71.5%
viability, T/C (second compound 0.316 µM, first compound 10 µM): 61.5%
viability, T/C [19]: 73%
viability, T/C [20]: 81.4%
viability, T/C [29]: 78.8%
viability, T/C [30]: 67.6%
viability, T/C (second compound 1 µM, first compound 3.16 µM): 62.5%
viability, T/C (second compound 1 µM, first compound 10 µM): 66.8%

IC50 (second compound 0.01 µM): 0.0157 µM
IC50 (second compound 0.0316 µM): 0.0184 µM
IC50 (second compound 0.1 µM): 0.0145 µM
IC50 (second compound 0.316 µM): 0.0266 µM
IC50 (second compound 1 µM): 0.0158 µM
SMILES: O=C(c1ccc(F)c(F)c1Nc1ccc(I)cc1F)N1CC(O)([C@@H]2CCCCN2)C1 + CNC(C)C(=O)NC1CN(S(=O)(=O)c2cccc(S(=O)(=O)N3CCC4CCC(C(=O)NC(c5ccccc5)c5ccccc5)N4C(=O)C(NC(=O)C(C)NC)C3)c2)CCC2CCC(C(=O)NC(c3ccccc3)c3ccccc3)N2C1=O
viability, T/C [1]: 61.2%
viability, T/C [2]: 57.2%
viability, T/C [3]: 38.5%
viability, T/C [4]: 35.7%
viability, T/C [21]: 17.7%
viability, T/C [22]: 20.2%
viability, T/C [5]: 76.8%
viability, T/C [6]: 56.4%
viability, T/C [7]: 46.5%
viability, T/C [8]: 26.9%
viability, T/C [23]: 25.5%
viability, T/C [24]: 18.8%
viability, T/C [9]: 66.4%
viability, T/C [10]: 44.7%
viability, T/C [11]: 53.5%
viability, T/C [12]: 29.4%
viability, T/C [25]: 19.7%
viability, T/C [26]: 20.8%
viability, T/C [13]: 61.6%
viability, T/C [14]: 60.3%
viability, T/C [15]: 48%
viability, T/C [16]: 28%
viability, T/C [27]: 18.9%
viability, T/C [28]: 18.3%
viability, T/C [17]: 67.1%
viability, T/C [18]: 53.4%
viability, T/C [19]: 43.5%
viability, T/C [20]: 28.2%
viability, T/C [29]: 17.4%
viability, T/C [30]: 17.3%

Source: PubChem BioAssay AID1963430 (Molecular Pharmacology Branch, DTP, NCI, 2024)
